This is an account of results in patent US20050013835A1, “Stable non-dihydrate azithromycin oral suspensions” (Pfizer Inc., priority 2003, published 2005).

Data set [1] is described as follows: Stability of non-dihydrate azithromycin in constituted suspension: conversion to dihydrate (form A) quantified by SS-NMR. The settings on record: for rate of conversion to azithromycin dihydrate in POS formulation II suspension as compared to bulk drug suspended in deionized water: 5° C. or 30° C., 1 to 10 days. Type of data set: physicochemical.
Description: These POS formulations were created by individually weighing each formulation component into a 60-cc High Density Polyethylene (HDPE) bottle with closure. The resulting formulations were then dry-mixed with a Turbula blender (Glen Mills Inc. Maywood, N.J.) for 5 minutes. The powder blends were then constituted with 18 mls of water, shaken for 30 seconds and stored without agitation under controlled temperature conditions.
Upon conclusion of the storage time period the suspensions were filtered and suspended solids collected as described previously.
The nature of data set [2]: Effect of sucrose vehicle viscosity on conversion in flavoring-free form G suspensions (SS-NMR). Type of data set: physicochemical. The settings on record: 820 mg form G, no flavoring, room temperature. The protocol:
(§1) Upon conclusion of the storage time period the POS samples were filtered using a Buchner funnel in combination with a standard vacuum filtration apparatus. A Millipore prefilter (AP25, 47 mm) was fitted onto the funnel for the collection of suspended solids. Before filtering, the constituted POS sample was poured into a 200 ml volumetric flask and diluted to 200 ml with water. This lowered the viscosity of the sample, facilitating a quick filtration step. With the vacuum on, the diluted POS samples were poured onto the Millipore prefilter. The isolated filtrate remaining on top of the prefilter was then allowed to stand for 2-minutes in order to dry. Vacuum was applied to the filtration apparatus during this drying step. Suspensions containing only bulk drug were transferred directly onto the filter paper upon completion of storage, without the described dilution step during sample preparation. After drying, the collected filtrate was placed into 4 cc Sunbroker vials and analyzed via Solid-State Nuclear Magnetic Resonance (SS-NMR) for quantification of conversion to azithromycin dihydrate (form A).
(§2) Approximately 300 mg of sample were tightly packed into a 7 mm ZrO spinner for each sample analyzed. One-dimensional ^13C spectra were collected at ambient pressure using ^1H-^13C cross-polarization magic angle spinning (CPMAS) at 295 K on a Bruker 7 mm BL CPMAS probe positioned into a wide-bore Bruker Avance DSX 500 MHz NMR spectrometer (Bruker BioSpin Corporation; Billerica, Mass.). The samples were spun at 7000 Hz corresponding to the maximum specified spinning speed for the 7 mm spinners. The fast spinning speed minimized the intensities of the spinning side bands. To optimize the signal sensitivity, the cross-polarization contact time was adjusted to 2.3 ms and the decoupling power was set to 65 kHz. Typically, a total of 600 scans were acquired, resulting in approximately a 30 minute acquisition time. The spectra were referenced using an external sample of adamantane with its most upfield resonance set to 29.5 ppm.
(§3) Eight pairs of resolved peaks were identified to calibrate ratios of form A in the presence of form G, N, M or F. Integral intensities of all peaks were used as input for the calibration procedure using five different binary mixtures ranging from 3 to 81% of form A with each non-dihydrate form. From this, one non-linear calibration graph was generated for each pair of peaks and each form. For the experimental samples, only the peaks that were totally void from excipient overlap were preferentially integrated. The unknown percentages of form A were then determined from the appropriate calibration graphs. The final result for each sample analyzed was calculated as a weighted average of the determinations from each resolved peak pair.
(§4) Viscosifying agents were incorporated into POS formulations in the absence of conversion enhancers, such as flavoring components. Specifically, a series of viscous media was prepared by dissolving various amounts of either sucrose or sorbitol in a 0.22 M phosphate buffer solution. Each solution was then adjusted with sodium hydroxide to bring the mixture to a pH of 7.8. The viscosity of each constitution media was measured using a Brookfield digital viscometer (model DV-II) equipped with a 13R sample chamber and #18 spindle. A heating jacket was also used to maintain the 8 ml sample volume to a temperature of 21° C. during measurements. 18 mls of each viscous media were then used to constitute 820 mg of form G azithromycin. The resulting suspensions were stored at room temperature for both 5 and 10-days. Upon conclusion of the storage time period the constituted samples were filtered and analyzed by SS-NMR for quantitation of dihydrate species present.

Data set [3] is described as follows: Effect of sorbitol vehicle viscosity on conversion in flavoring-free form G suspensions (SS-NMR). The format is physicochemical. The settings on record: 820 mg form G, no flavoring, room temperature. The protocol:
as §1, §2, §3, §4

Data set [4] can be described thus: Addition of polymeric and surfactant components to slow form F conversion in formulation II (SS-NMR). The settings on record: additive level 1 % w/v, 18 ml water, 24 hours room temperature. Type of data set: physicochemical. The method, then: as §1, with “Vacuum was applied to the filtration apparatus during this drying step. Suspensions containing only bulk drug were transferred directly onto the filter paper upon completion of storage, without the described dilution step during sample preparation.” left out
(§5) Approximately 300 mg of sample were tightly packed into a 7 mm ZrO spinner for each sample analyzed. […]
(§6) Eight pairs of resolved peaks were identified to calibrate ratios of form A in the presence of form G, N, M or F. Integral intensities of all peaks were used as input for the calibration procedure using five different binary mixtures ranging from 3 to 81% of form A with each non-dihydrate form. […] The unknown percentages of form A were then determined from the appropriate calibration graphs. […]

The nature of data set [5]: Addition of polymeric and surfactant components to slow form M conversion in formulation II (SS-NMR). Type of data set: physicochemical. The settings on record: additive level 1 % w/v, 18 ml water, 24 hours room temperature. The protocol:
as §1, with “Vacuum was applied to the filtration apparatus during this drying step. Suspensions containing only bulk drug were transferred directly onto the filter paper upon completion of storage, without the described dilution step during sample preparation.” left out
as §5, §6

For data set [6] the following is noted: Literature value (Johnson, Kreuter and Zografi, Colloids and Surfaces 17 (1986) 325-342); cited from earlier work.
Data set [7] in a line: Surface tension of aqueous additive solution (Wilhelmy plate or literature). Type of data set: physicochemical. The settings on record: aqueous solution at the concentration used in the suspension (1 % w/v), Kruss Tensiometer, Wilhemy plate, room temperature.
Data set [8] can be described thus: Effect of individual flavorings and sucrose on conversion of form G to form A in pH 8.16 buffer (SS-NMR). Type of data set: physicochemical. The settings on record: 820 mg form G + 200 mg flavoring or sucrose, 18 ml pH 8.16 buffer, room temperature.
[9] abbreviates: Bulk drug in 18 ml water, 5° C., day 1.
Where [10] appears, read: Bulk drug in 18 ml water, 5° C., day 10.
The mark [11] stands for this setting: Bulk drug in 18 ml water, 30° C., day 1.
[12] abbreviates: Bulk drug in 18 ml water, 30° C., day 10.
Setting [13] is: Formulation II constituted with 18 ml water, 5° C., day 1.
Where [14] appears, read: Formulation II constituted with 18 ml water, 5° C., day 10.
[15] abbreviates: Formulation II constituted with 18 ml water, 30° C., day 1.
Setting [16] is: Formulation II constituted with 18 ml water, 30° C., day 10.
The mark [17] stands for this setting: Bulk drug in 18 ml water, 5° C., day 5.
Where [18] appears, read: Bulk drug in 18 ml water, 30° C., day 5.
[19] abbreviates: Formulation II constituted with 18 ml water, 5° C., day 5.
[20] abbreviates: Formulation II constituted with 18 ml water, 30° C., day 5.
Where [21] appears, read: 18 ml 0.0 mg/ml sucrose solution pH 7.8, viscosity 1.2 cP.
Setting [22] is: 18 ml 0.8 mg/ml sucrose solution pH 7.8, viscosity 10.2 cP.
Setting [23] is: 18 ml 1.1 mg/ml sucrose solution pH 7.8, viscosity 20.2 cP.
The mark [24] stands for this setting: 18 ml 1.4 mg/ml sucrose solution pH 7.8, viscosity 41.7 cP.
Setting [25] is: 18 ml 1.8 mg/ml sucrose solution pH 7.8, viscosity 105.0 cP.
Where [26] appears, read: 18 ml 0.0 mg/ml sorbitol solution pH 7.8, viscosity ˜1 cP.
Where [27] appears, read: 18 ml 1.02 mg/ml sorbitol solution pH 7.8, viscosity 3.4 cP.
Setting [28] is: 18 ml 1.54 mg/ml sorbitol solution pH 7.8, viscosity 21.0 cP.
[29] abbreviates: 18 ml 2.04 mg/ml sorbitol solution pH 7.8, viscosity 130.9 cP.

Where two headings read alike, the source gives them in different places.

Consider `CCC1OC(=O)C(C)C(O[C@H]2C[C@@](C)(OC)[C@@H](O)C(C)O2)C(C)[C@@H](OC2OC(C)CC(N(C)C)[C@H]2O)[C@@](C)(O)C[C@@H](C)CN(C)[C@H](C)[C@@H](O)[C@]1(C)O` (some centres unmarked) [Form F, azithromycin monohydrate hemi-ethanol solvate], for which the “rate of conversion to azithromycin dihydrate in POS formulation II suspension as compared to bulk drug suspended in deionized water” value in data set [1] is listed as “much greater rates”. Further, the “% A” value was 0% in data set [1] (setting [9]); 0% in data set [1] (setting [10]); 0% in data set [1] (setting [11]); 0% in data set [1] (setting [12]); 6% in data set [1] (setting [13]); 27% in data set [1] (setting [14]). Moreover, the “% A” value in data set [1] (setting [15]) turned out to be 19%; in data set [1] (setting [16]), 31%.
`CC[C@H]1OC(=O)[C@H](C)[C@@H](O[C@H]2C[C@@](C)(OC)[C@@H](O)[C@H](C)O2)[C@H](C)[C@@H](O[C@@H]2O[C@H](C)C[C@H](N(C)C)[C@H]2O)[C@](C)(O)C[C@@H](C)CN(C)[C@H](C)[C@@H](O)[C@]1(C)O` [Form G, azithromycin sesquihydrate]: in data set [1], the “rate of conversion to azithromycin dihydrate in POS formulation II suspension as compared to bulk drug suspended in deionized water” value was “much greater rates”. The “% A” value in data set [1] (setting [9]) is 1%; in data set [1] (setting [17]) it was 6%; in data set [1] (setting [10]), 12%; in data set [1] (setting [11]) it was 3%; in data set [1] (setting [18]) it was 26%; in data set [1] (setting [12]), 73%. Further, the “% A” value in data set [1] (setting [13]) is 72%; in data set [1] (setting [19]), 75%; in data set [1] (setting [14]) it was 78%; in data set [1] (setting [15]) it was 82%; in data set [1] (setting [20]), 74%; in data set [1] (setting [16]) it was 76%. Besides, the “5-day Storage (% Form A)” value stood at 20% in data set [2] (setting [21]); 5% in data set [2] (setting [22]); 5% in data set [2] (setting [23]); 1% in data set [2] (setting [24]); 0% in data set [2] (setting [25]); 35% in data set [3] (setting [26]). Moreover, the “5-day Storage (% Form A)” value in data set [3] (setting [27]) was determined as 7%; in data set [3] (setting [28]), 0%; in data set [3] (setting [29]) it was 0%. Further, the “10-day Storage (% Form A)” value in data set [2] (setting [21]) was 55%; in data set [2] (setting [22]), 12%; in data set [2] (setting [23]) it was 6%; in data set [2] (setting [24]), 3%; in data set [2] (setting [25]) it was 0%; in data set [3] (setting [26]) it was 100%. Further, the entries for the “10-day Storage (% Form A)” value in data set [3] (setting [27]), in data set [3] (setting [28]) and in data set [3] (setting [29]) were 7%, 0% and 0%, respectively.
With `CCC1OC(=O)C(C)C(O[C@H]2C[C@@](C)(OC)[C@@H](O)C(C)O2)C(C)[C@@H](OC2OC(C)CC(N(C)C)[C@H]2O)[C@@](C)(O)C[C@@H](C)CN(C)[C@H](C)[C@@H](O)[C@]1(C)O` (some centres unmarked) [Form J, azithromycin monohydrate hemi-n-propanol solvate], in data set [1], the “rate of conversion to azithromycin dihydrate in POS formulation II suspension as compared to bulk drug suspended in deionized water” value was “did not exhibit a greater conversion rate”. Also, the “% A” value in data set [1] (setting [13]), in data set [1] (setting [14]), in data set [1] (setting [15]) and in data set [1] (setting [16]) was 0% in each case.
For `CCC1OC(=O)C(C)C(O[C@H]2C[C@@](C)(OC)[C@@H](O)C(C)O2)C(C)[C@@H](OC2OC(C)CC(N(C)C)[C@H]2O)[C@@](C)(O)C[C@@H](C)CN(C)[C@H](C)[C@@H](O)[C@]1(C)O` (some centres unmarked) [Form M, azithromycin monohydrate hemi-isopropanol solvate], the “rate of conversion to azithromycin dihydrate in POS formulation II suspension as compared to bulk drug suspended in deionized water” value in data set [1] is “much greater rates”. In addition, the “% A” value in data set [1] (setting [9]), in data set [1] (setting [17]), in data set [1] (setting [10]), in data set [1] (setting [11]), in data set [1] (setting [18]) and in data set [1] (setting [12]) was 0% each time. For the same compound, the “% A” value came to 23% in data set [1] (setting [13]); 38% in data set [1] (setting [19]); 40% in data set [1] (setting [14]); 28% in data set [1] (setting [15]); 36% in data set [1] (setting [20]); 62% in data set [1] (setting [16]).
On to `CCCCCCCCOC(=O)CC(C(=O)OCCCCCCCC)S(=O)(=O)O.[Na]` (centres unmarked) [Sodium Dioctyl Sulfosuccinate], for which the “% Conversion to Form A Relative to the Control Sample” value in data set [4] and in data set [5] was 0% in each case. Besides, the “Surface Tension” value in data set [6] was 25.6^1 dyne/cm.
For the compound `CCCCCCCCCCCCOS(=O)(=O)[O-].[Na+]` [Sodium Lauryl Sulfate], the “% Conversion to Form A Relative to the Control Sample” value in data set [4] and in data set [5] was 0% in each case. In data set [7], the “Surface Tension” value is recorded as 35.8^2 dyne/cm.
Regarding `OC[C@H]1O[C@@](CO)(O[C@H]2O[C@H](CO)[C@@H](O)[C@H](O)[C@H]2O)[C@@H](O)[C@@H]1O` [Sucrose], the “Δ % Form A” value in data set [8] (constituted 1 day) is listed as 2%; in data set [8] (constituted 5 days), 1%; in data set [8] (constituted 10 days), 6%; in data set [8] (constituted 10 days, listed as sucrose), “only minimal conversion to form A”.
